# Source: article PMC5218480 (PLoS ONE, 2017)
# Tested on: MV-4-11 cells
# Assay: Gene expression microarray analysis (Affymetrix PrimeView) and GSEA
# Type: cell-based, human
# Design: RFU PODN (11730768_x_at) / Fold change /veh PODN (11730768_x_at) / RFU LINC00158 (11744669_a_at) / Fold change /veh LINC00158 (11744669_a_at) / RFU DUSP10 (11751237_a_at) / Fold change /veh DUSP10 (11751237_a_at) / RFU ID3 (11757404_x_at) / Fold change /veh ID3 (11757404_x_at) / RFU PLEKHG5 (11737974_s_at) / Fold change /veh PLEKHG5 (11737974_s_at) / RFU LRRC4B (11730491_at) / Fold change /veh LRRC4B (11730491_at) / RFU GIMAP4 (11747438_a_at) / Fold change /veh GIMAP4 (11747438_a_at) / RFU KRT8 (11758183_x_at) / Fold change /veh KRT8 (11758183_x_at) / RFU CNN1 (11734310_a_at) / Fold change /veh CNN1 (11734310_a_at) / RFU VPS37D (11726825_at) / Fold change /veh VPS37D (11726825_at) / RFU C10orf10 (11716522_x_at) / Fold change /veh C10orf10 (11716522_x_at) / RFU KIR2DL2 /// KIR2DL4 /// KIR2DL5A /// KIR2DL5B /// KIR2DS1 /// KIR2DS2 /// KIR2DS3 /// KIR2DS4 /// KIR3DL3 /// KIR3DL3 /// KIR3DS1 (11738374_at) / Fold change /veh KIR2DL2 /// KIR2DL4 /// KIR2DL5A /// KIR2DL5B /// KIR2DS1 /// KIR2DS2 /// KIR2DS3 /// KIR2DS4 /// KIR3DL3 /// KIR3DL3 /// KIR3DS1 (11738374_at) / RFU C1QL1 (11718748_at) / Fold change /veh C1QL1 (11718748_at) / RFU TMPRSS4 (11747572_a_at) / Fold change /veh TMPRSS4 (11747572_a_at) / RFU HAMP (11756126_x_at) / Fold change /veh HAMP (11756126_x_at) / RFU RNFT2 (11725882_a_at) / Fold change /veh RNFT2 (11725882_a_at) / RFU NR4A2 (11747474_a_at) / Fold change /veh NR4A2 (11747474_a_at) / RFU ABCC12 (11746883_a_at) / Fold change /veh ABCC12 (11746883_a_at) / RFU TMEM136 (11760407_x_at) / Fold change /veh TMEM136 (11760407_x_at) / RFU CLDN22 /// WWC2 (11732394_at) / Fold change /veh CLDN22 /// WWC2 (11732394_at) / RFU HLA-DPB1 (11760878_x_at) / Fold change /veh HLA-DPB1 (11760878_x_at) / RFU SPINT1 (11716480_a_at) / Fold change /veh SPINT1 (11716480_a_at) / RFU GAP43 (11754022_s_at) / Fold change /veh GAP43 (11754022_s_at) / RFU A4GNT (11735810_at) / Fold change /veh A4GNT (11735810_at) / RFU PRB3 (11715151_x_at) / Fold change /veh PRB3 (11715151_x_at) / RFU TUBB4B (11761932_at) / Fold change /veh TUBB4B (11761932_at) / RFU CAPN14 (11732068_a_at) / Fold change /veh CAPN14 (11732068_a_at) / RFU TMCC2 (11721928_a_at) / Fold change /veh TMCC2 (11721928_a_at) / RFU IRGQ (11745062_a_at) / Fold change /veh IRGQ (11745062_a_at) / RFU FAM174B (11720279_a_at) / Fold change /veh FAM174B (11720279_a_at) / RFU TMPRSS4 (11748680_a_at) / Fold change /veh TMPRSS4 (11748680_a_at) / RFU FAM212B (11763350_a_at) / Fold change /veh FAM212B (11763350_a_at) / RFU PLEKHG5 (11743358_a_at) / Fold change /veh PLEKHG5 (11743358_a_at) / RFU ZSCAN30 (11745921_a_at) / Fold change /veh ZSCAN30 (11745921_a_at) / RFU CMKLR1 (11741424_a_at) / Fold change /veh CMKLR1 (11741424_a_at) / RFU LOC101060620 /// MAPK8IP1 (11723275_at) / Fold change /veh LOC101060620 /// MAPK8IP1 (11723275_at) / RFU SPTSSB (11747773_x_at) / Fold change /veh SPTSSB (11747773_x_at) / RFU PRSS12 (11739890_at) / Fold change /veh PRSS12 (11739890_at) / RFU BIN1 (11741810_x_at) / Fold change /veh BIN1 (11741810_x_at) / RFU WNT11 (11732464_a_at) / Fold change /veh WNT11 (11732464_a_at) / RFU C10orf10 (11716521_a_at) / Fold change /veh C10orf10 (11716521_a_at) / RFU C5orf56 (11738089_at) / Fold change /veh C5orf56 (11738089_at) / RFU CYB561 (11721691_x_at) / Fold change /veh CYB561 (11721691_x_at) / RFU ANKRD19P (11752326_a_at) / Fold change /veh ANKRD19P (11752326_a_at) / RFU OR2T12 /// OR2T33 /// OR2T8 (11738714_s_at) / Fold change /veh OR2T12 /// OR2T33 /// OR2T8 (11738714_s_at) / RFU VCAN (11748164_a_at) / Fold change /veh VCAN (11748164_a_at) / RFU JSRP1 (11732532_at) / Fold change /veh JSRP1 (11732532_at) / RFU KRTAP10-11 (11738290_x_at) / Fold change /veh KRTAP10-11 (11738290_x_at) / RFU MYO3A (11730013_a_at) / Fold change /veh MYO3A (11730013_a_at) / RFU EBF3 (11725865_a_at) / Fold change /veh EBF3 (11725865_a_at) / RFU CAMK2N1 (11719241_x_at) / Fold change /veh CAMK2N1 (11719241_x_at) / RFU C5orf56 (11738088_a_at) / Fold change /veh C5orf56 (11738088_a_at) / RFU OLFML3 (11715873_a_at) / Fold change /veh OLFML3 (11715873_a_at) / RFU LOC100653217 /// NTM (11731650_a_at) / Fold change /veh LOC100653217 /// NTM (11731650_a_at) / RFU MAPK11 (11762145_a_at) / Fold change /veh MAPK11 (11762145_a_at) / RFU FIZ1 (11724087_x_at) / Fold change /veh FIZ1 (11724087_x_at) / RFU OASL (11726364_x_at) / Fold change /veh OASL (11726364_x_at) / RFU SOX15 (11748057_x_at) / Fold change /veh SOX15 (11748057_x_at) / RFU CD79A (11719716_a_at) / Fold change /veh CD79A (11719716_a_at) / RFU HIST1H1D (11736915_at) / Fold change /veh HIST1H1D (11736915_at) / RFU CASKIN2 (11723855_a_at) / Fold change /veh CASKIN2 (11723855_a_at) / RFU LOC730098 (11760151_x_at) / Fold change /veh LOC730098 (11760151_x_at) / RFU OR4N2 (11742367_at) / Fold change /veh OR4N2 (11742367_at) / RFU PRRT2 (11749266_a_at) / Fold change /veh PRRT2 (11749266_a_at) / RFU SNX32 (11753110_a_at) / Fold change /veh SNX32 (11753110_a_at) / RFU CDHR5 (11726645_a_at) / Fold change /veh CDHR5 (11726645_a_at) / RFU RCAN1 (11760418_a_at) / Fold change /veh RCAN1 (11760418_a_at) / RFU FAM167A (11723789_a_at) / Fold change /veh FAM167A (11723789_a_at) / RFU FAM26E (11764081_at) / Fold change /veh FAM26E (11764081_at) / RFU ISYNA1 (11749810_s_at) / Fold change /veh ISYNA1 (11749810_s_at) / RFU ACY1 (11761880_at) / Fold change /veh ACY1 (11761880_at) / RFU 11764098_at / Fold change /veh 11764098_at / RFU SAMD14 (11745864_x_at) / Fold change /veh SAMD14 (11745864_x_at) / RFU NPB (11741838_a_at) / Fold change /veh NPB (11741838_a_at) / RFU TMPRSS6 (11731388_a_at) / Fold change /veh TMPRSS6 (11731388_a_at) / RFU KRTAP10-2 (11738614_at) / Fold change /veh KRTAP10-2 (11738614_at) / RFU ARHGAP8 /// PRR5-ARHGAP8 (11727945_x_at) / Fold change /veh ARHGAP8 /// PRR5-ARHGAP8 (11727945_x_at) / RFU KRTAP5-7 /// NADSYN1 (11734609_at) / Fold change /veh KRTAP5-7 /// NADSYN1 (11734609_at) / RFU RASL12 (11751679_a_at) / Fold change /veh RASL12 (11751679_a_at) / RFU CDKN2B (11736163_a_at) / Fold change /veh CDKN2B (11736163_a_at) / RFU PRF1 (11729649_at) / Fold change /veh PRF1 (11729649_at) / RFU, ZNF638 /// ZNF638-IT1 / Fold change vs veh, ZNF638 /// ZNF638-IT1 / RFU, PANK3 / Fold change vs veh, PANK3 / RFU, SH3YL1 / Fold change vs veh, SH3YL1 / RFU, ZEB2 / Fold change vs veh, ZEB2 / RFU, NRIP1 / Fold change vs veh, NRIP1 / RFU, PTTG1IP / Fold change vs veh, PTTG1IP / RFU, CAPN2 / Fold change vs veh, CAPN2 / RFU, MED14 / Fold change vs veh, MED14 / RFU, SNORA58 / Fold change vs veh, SNORA58 / RFU, C1orf63 / Fold change vs veh, C1orf63 / RFU, LRRFIP1 / Fold change vs veh, LRRFIP1 / RFU, NDUFAF7 / Fold change vs veh, NDUFAF7 / RFU, SLC12A2 / Fold change vs veh, SLC12A2 / RFU, IBTK / Fold change vs veh, IBTK / RFU, ESF1 / Fold change vs veh, ESF1 / Fold change vs veh, TMEM50B / RFU, TAOK1 / Fold change vs veh, TAOK1 / RFU, ACBD3 / Fold change vs veh, ACBD3 / RFU, TMA16 / Fold change vs veh, TMA16 / RFU, RWDD3 / Fold change vs veh, RWDD3 / RFU, BCAT1 / Fold change vs veh, BCAT1 / RFU, EDEM3 / Fold change vs veh, EDEM3 / RFU, TMEM33 / Fold change vs veh, TMEM33 / RFU, WDR75 / Fold change vs veh, WDR75 / RFU, AHCTF1 / Fold change vs veh, AHCTF1 / RFU, TFRC / Fold change vs veh, TFRC / RFU, ZDHHC17 / Fold change vs veh, ZDHHC17 / RFU, NOM1 / Fold change vs veh, NOM1 / RFU, ARL8B / Fold change vs veh, ARL8B / RFU, ZBTB11 / Fold change vs veh, ZBTB11 / RFU, TAMM41 / Fold change vs veh, TAMM41 / RFU, KIAA1704 /// LOC100996395 / Fold change vs veh, KIAA1704 /// LOC100996395 / RFU, ING1 / Fold change vs veh, ING1 / RFU, TRMT61B / Fold change vs veh, TRMT61B / RFU, FUBP3 / Fold change vs veh, FUBP3 / RFU, TP53 / Fold change vs veh, TP53 / RFU, TNKS2 / Fold change vs veh, TNKS2 / RFU, ZFP14 / Fold change vs veh, ZFP14 / RFU, ACTR2 / Fold change vs veh, ACTR2 / RFU, PPP3R1 / Fold change vs veh, PPP3R1 / RFU, PIK3R1 / Fold change vs veh, PIK3R1 / RFU, HNRNPA1 / Fold change vs veh, HNRNPA1 / RFU, RNF170 / Fold change vs veh, RNF170 / RFU, ZNF28 / Fold change vs veh, ZNF28 / RFU, RNGTT / Fold change vs veh, RNGTT / RFU, OGT / Fold change vs veh, OGT / RFU, BRD1 / Fold change vs veh, BRD1 / RFU, MARS / Fold change vs veh, MARS / RFU, ZNF655 / Fold change vs veh, ZNF655 / RFU, FAHD1 / Fold change vs veh, FAHD1 / RFU, BDP1 / Fold change vs veh, BDP1 / RFU, LRRCC1 / Fold change vs veh, LRRCC1 / RFU, ARID1A / Fold change vs veh, ARID1A / RFU, ZNF146 / Fold change vs veh, ZNF146 / RFU, ZNF330 / Fold change vs veh, ZNF330 / RFU, GPN3 / Fold change vs veh, GPN3 / RFU, C9orf123 / Fold change vs veh, C9orf123 / RFU, N4BP2L2 / Fold change vs veh, N4BP2L2 / RFU, ARFIP1 / Fold change vs veh, ARFIP1 / RFU, FAM179B / Fold change vs veh, FAM179B / RFU, BCL10 / Fold change vs veh, BCL10 / RFU, UHRF1BP1L / Fold change vs veh, UHRF1BP1L / RFU, BET1 / Fold change vs veh, BET1 / RFU, CNOT2 / Fold change vs veh, CNOT2 / RFU, ZNF268 / Fold change vs veh, ZNF268 / Fold change vs veh, ZNF507 / RFU, DGCR2 / Fold change vs veh, DGCR2 / RFU, WDSUB1 / Fold change vs veh, WDSUB1 / Fold change vs veh, HSP90B1 /// MIR3652 / RFU, ADSS / Fold change vs veh, ADSS / RFU, GK / Fold change vs veh, GK / RFU, ZNF148 / Fold change vs veh, ZNF148 / RFU, TAF9 / Fold change vs veh, TAF9 / RFU, SLC1A5 / Fold change vs veh, SLC1A5 / RFU, SLMO2 / Fold change vs veh, SLMO2 / RFU, ABCC4 / Fold change vs veh, ABCC4 / RFU, LOC101060439 /// RAP1B / Fold change vs veh, LOC101060439 /// RAP1B / RFU, RFX7 / Fold change vs veh, RFX7 / RFU, GTPBP10 / Fold change vs veh, GTPBP10 / RFU, CNEP1R1 / Fold change vs veh, CNEP1R1 / RFU, BIVM-ERCC5 /// ERCC5 / Fold change vs veh, BIVM-ERCC5 /// ERCC5 / RFU, ILF3 / Fold change vs veh, ILF3 / RFU 11762660_at / Fold change /veh 11762660_at / RFU VCAN (11757783_s_at) / Fold change /veh VCAN (11757783_s_at) / RFU DDX43 (11728927_at) / Fold change /veh DDX43 (11728927_at) / RFU KRT8 (11758188_x_at) / Fold change /veh KRT8 (11758188_x_at) / RFU NKD1 (11759106_at) / Fold change /veh NKD1 (11759106_at) / RFU SRD5A1 (11742802_a_at) / Fold change /veh SRD5A1 (11742802_a_at) / RFU TPSAB1 /// TPSB2 (11721975_s_at) / Fold change /veh TPSAB1 /// TPSB2 (11721975_s_at) / RFU GSTM3 (11746129_a_at) / Fold change /veh GSTM3 (11746129_a_at) / RFU IL23R (11737362_x_at) / Fold change /veh IL23R (11737362_x_at) / RFU TMEM51 (11727254_a_at) / Fold change /veh TMEM51 (11727254_a_at) / RFU PIWIL2 (11732686_x_at) / Fold change /veh PIWIL2 (11732686_x_at) / RFU ORM1 (11744905_x_at) / Fold change /veh ORM1 (11744905_x_at) / RFU CCDC152 (11743942_at) / Fold change /veh CCDC152 (11743942_at) / RFU ECM1 (11717891_a_at) / Fold change /veh ECM1 (11717891_a_at) / RFU IL23R (11748794_a_at) / Fold change /veh IL23R (11748794_a_at) / RFU TNFAIP8L3 (11732012_x_at) / Fold change /veh TNFAIP8L3 (11732012_x_at) / RFU MBOAT4 (11741988_at) / Fold change /veh MBOAT4 (11741988_at) / RFU 11764193_at / Fold change /veh 11764193_at / RFU TMEM53 (11763286_at) / Fold change /veh TMEM53 (11763286_at) / RFU MAGEB2 (11727129_at) / Fold change /veh MAGEB2 (11727129_at) / RFU TMEM200A (11744735_a_at) / Fold change /veh TMEM200A (11744735_a_at) / RFU CCDC152 (11751479_a_at) / Fold change /veh CCDC152 (11751479_a_at) / RFU FAM211A (11726209_a_at) / Fold change /veh FAM211A (11726209_a_at) / RFU RGS16 (11746705_a_at) / Fold change /veh RGS16 (11746705_a_at) / RFU VCAN (11755009_s_at) / Fold change /veh VCAN (11755009_s_at) / RFU RHOB (11743442_s_at) / Fold change /veh RHOB (11743442_s_at) / RFU RGS16 (11720943_a_at) / Fold change /veh RGS16 (11720943_a_at) / RFU RGS16 (11720944_at) / Fold change /veh RGS16 (11720944_at) / RFU, VPS4B / Fold change vs veh, VPS4B / RFU, CREB1 / Fold change vs veh, CREB1 / RFU, DNAJC13 / Fold change vs veh, DNAJC13 / RFU, GNAQ / Fold change vs veh, GNAQ / RFU, CDK5R1 / Fold change vs veh, CDK5R1 / RFU, ZRANB3 / Fold change vs veh, ZRANB3 / RFU, CUL4A / Fold change vs veh, CUL4A / RFU, CCNY / Fold change vs veh, CCNY / RFU, UFL1 / Fold change vs veh, UFL1 / RFU, COG3 / Fold change vs veh, COG3 / RFU, DIAPH2 / Fold change vs veh, DIAPH2 / RFU, SKA2 / Fold change vs veh, SKA2 / RFU, AFF3 / Fold change vs veh, AFF3 / RFU, LMF1 / Fold change vs veh, LMF1 / RFU, IPO11 / Fold change vs veh, IPO11 / RFU, DFFB / Fold change vs veh, DFFB / RFU, FOXP1 / Fold change vs veh, FOXP1 / RFU, CARD8 / Fold change vs veh, CARD8 / RFU, STRN3 / Fold change vs veh, STRN3 / RFU, ADK / Fold change vs veh, ADK / RFU, RASSF2 / Fold change vs veh, RASSF2 / RFU, WIPF1 / Fold change vs veh, WIPF1 / RFU, LARP1B / Fold change vs veh, LARP1B / RFU, RASA1 / Fold change vs veh, RASA1 / RFU, RB1 / Fold change vs veh, RB1 / RFU, PPFIA1 / Fold change vs veh, PPFIA1 / RFU, MAT2A / Fold change vs veh, MAT2A / RFU, CCT5 / Fold change vs veh, CCT5 / RFU, WDR92 / Fold change vs veh, WDR92 / RFU, CUX1 / Fold change vs veh, CUX1 / RFU, TTC7A / Fold change vs veh, TTC7A / RFU, TMEM135 / Fold change vs veh, TMEM135 / RFU, DEPTOR / Fold change vs veh, DEPTOR / RFU, CPM / Fold change vs veh, CPM / RFU, DNAJB6 / Fold change vs veh, DNAJB6 / RFU, CACNA2D3 / Fold change vs veh, CACNA2D3 / RFU, DTX4 / Fold change vs veh, DTX4 / RFU, TFCP2 / Fold change vs veh, TFCP2 / RFU, GMCL1 /// GMCL1P1 / Fold change vs veh, GMCL1 /// GMCL1P1 / RFU, AEBP2 / Fold change vs veh, AEBP2 / RFU, SNHG1 /// SNORD22 /// SNORD25 /// SNORD26 /// SNORD27 /// SNORD28 /// SNORD29 /// SNORD31 / Fold change vs veh, SNHG1 /// SNORD22 /// SNORD25 /// SNORD26 /// SNORD27 /// SNORD28 /// SNORD29 /// SNORD31 / Fold change (Aza/veh), C12orf56 (ProbeSet 11735607_a_at) / Fold change (ACY-1035/veh), C12orf56 (ProbeSet 11735607_a_at) / Fold change (Aza/veh), FGFR1OP (ProbeSet 11751329_s_at) / Fold change (ACY-1035/veh), FGFR1OP (ProbeSet 11751329_s_at) / Fold change (Aza/veh), VPS36 (ProbeSet 11739960_a_at) / Fold change (ACY-1035/veh), VPS36 (ProbeSet 11739960_a_at) / RFU SYPL1 (11715823_x_at) / Fold change /veh SYPL1 (11715823_x_at) / RFU IGFBP7 (11715501_s_at) / Fold change /veh IGFBP7 (11715501_s_at) / RFU REEP3 (11722064_at) / Fold change /veh REEP3 (11722064_at) / RFU IGLL1 (11728026_x_at) / Fold change /veh IGLL1 (11728026_x_at): dose or concentration left out as unconfirmed
# Conditions: MV-4-11 cells, 48 hours
compound,measurement,value
Nc1ccc(-c2cccs2)cc1NC(=O)c1ccc2c(c1)cc(C1CC1)n2CCN1CCOCC1 [ACY-1035],RFU NPB (11741838_a_at),77.64 RFU
